Test results taken from the supplement of paper PMC4862054.
Where “and” joins values, the source holds several entries; their conditions need not be identical. Equal values may be shown once.

How the values were obtained:
Details in all cases: incubation time: 72 h
BT-474 = experiment: normalised response (% of control), CellTox Green; higher = less cell death (100 = DMSO, 0 = benzethonium chloride kill control)
Summary of the method: (§1)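 Breast cancer cell lines, seeded at 20 µl suspension per well, were incubated for 72 h in 384-well plates containing compound at 5 concentrations. These concentrations rose in 10-fold steps over a 10,000-fold range set for each compound. CellTox Green fluorescence (485/520 nm) was read, then CellTiter-Glo luminescence after 10 min at room temperature, and each plate was normalised to 0.1 % DMSO (100) and a positive kill control (0). Values are normalised signals, each at one concentration.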

BT-549 = experiment: as above
Summary of the method: as §1

CAL-120 = experiment: as above
Summary of the method: as §1

CAL-148 = experiment: as above
Summary of the method: as §1

CAL-51 = experiment: as above
Summary of the method: as §1

CAL-85-1 = experiment: as above
Summary of the method: as §1

DU-4475 = experiment: as above
Summary of the method: as §1

HCC1143 = experiment: as above
Summary of the method: as §1

HCC1599 = experiment: as above
Summary of the method: as §1

HCC1937 = experiment: as above
Summary of the method: as §1

Hs578T [1] = experiment: as above
Summary of the method: as §1

MCF-10A = experiment: as above
Summary of the method: as §1

MDA-MB-231 = experiment: as above
Summary of the method: as §1

MDA-MB-436 = experiment: as above
Summary of the method: as §1

MDA-MB-453 = experiment: as above
Summary of the method: as §1

MDA-MB-468 = experiment: as above
Summary of the method: as §1

MFM-223 = experiment: as above
Summary of the method: as §1

Hs578T [2] = experiment: normalised viability (% of control), CellTiter-Blue; higher = more viable cells (about 100 = DMSO control)
Summary of the method: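 Each value is normalised viability at a single listed concentration of the series. Breast cancer cell lines in 384-well plates were incubated 72 h with compound and read by CellTiter-Blue fluorescence at 560/590 nm, with vehicle set to 100 and a positive kill control to 0 on every plate.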

HDQ-P1 = experiment: normalised response (% of control), CellTox Green; higher = less cell death (100 = DMSO, 0 = benzethonium chloride kill control)
Summary of the method: as §1

Row | SMILES | normalised response (BT-474) | normalised response (BT-549) | normalised response (CAL-120) | normalised response (CAL-148) | normalised response (CAL-51) | normalised response (CAL-85-1) | normalised response (DU-4475) | normalised response (HCC1143) | normalised response (HCC1599) | normalised response (HCC1937) | normalised response (Hs578T [1]) | normalised response (MCF-10A) | normalised response (MDA-MB-231) | normalised response (MDA-MB-436) | normalised response (MDA-MB-453) | normalised response (MDA-MB-468) | normalised response (MFM-223) | normalised viability (Hs578T [2]; 10 nM) | normalised viability (Hs578T [2]; 1000 nM) | normalised viability (Hs578T [2]; 10000 nM) | normalised response (HDQ-P1) | normalised viability (Hs578T [2]; 1 nM) | normalised viability (Hs578T [2]; 100 nM)
1 | Nc1ccccc1NC(=O)c1ccc(CNc2nccc(-c3cccnc3)n2)cc1 [Mocetinostat] (1000 nM) | 96% | 103% | 95.2% | 98.8% | 67% | 101% | 93% | 98.2% | 83.2% | 105% | 59.8% | 106% | 81.3% | 66.7% | 99.2% | 62.9% | 92.4% |  |  |  |  |  | 
2 | COc1nc(N)nc2c1ncn2[C@@H]1O[C@H](CO)[C@@H](O)[C@@H]1O [Nelarabine] |  |  |  |  |  |  |  |  |  |  |  |  |  |  |  |  |  | 103% and 92.6% | 103% and 95.2% | 89.4% and 85.8% |  |  | 
3 | COc1nc(N)nc2c1ncn2[C@@H]1O[C@H](CO)[C@@H](O)[C@@H]1O [Nelarabine] (1000 nM) | 96.4% | 128% | 89% | 87.2% | 99.3% | 108% | 94.7% |  | 90.3% | 100% | 107% | 98.8% | 106% | 88.7% | 104% | 102% | 89.8% |  |  |  | 78.7% |  | 
4 | Cc1ccc(Nc2nccc(N(C)c3ccc4c(C)n(C)nc4c3)n2)cc1S(N)(=O)=O [Pazopanib] (1000 nM) | 104% | 127% | 101% | 106% | 107% | 101% | 100% | 99.3% | 105% | 101% | 110% | 77% | 99.5% | 64.8% | 95.2% | 50% | 102% |  |  |  | 94.3% |  | 
5 | O=C(CCBr)N1CCN(C(=O)CCBr)CC1 [Pipobroman] (1000 nM) | 100% | 98.2% | 98.9% |  | 106% | 106% | 101% |  | 93.6% | 93.2% | 91.2% | 103% | 96.7% | 102% | 90.5% | 84.6% | 94% |  |  |  | 100% |  | 
6 | C[C@]12C=CC(=O)C=C1CC[C@@H]1[C@@H]2[C@@H](O)C[C@@]2(C)[C@H]1CC[C@]2(O)C(=O)CO [Prednisolone] (1000 nM) | 99.6% | 116% | 98.7% | 104% | 113% | 98.9% | 102% | 112% | 100% | 122% | 104% | 101% | 142% | 54.9% |  | 156% | 95.8% |  |  |  |  |  | 
7 | CNC(=O)c1cc(Oc2ccc(NC(=O)Nc3ccc(Cl)c(C(F)(F)F)c3)cc2)ccn1 [Sorafenib] (100 nM) | 96.8% | 114% | 99.5% | 73% | 87% | 107% | 99.9% | 83.6% | 93.7% | 92% |  | 99.8% | 101% | 105% | 95.1% | 118% | 101% |  |  |  | 67.2% |  | 
8 | CCN(CC)CCNC(=O)c1c(C)[nH]c(/C=C2\C(=O)Nc3ccc(F)cc32)c1C [Sunitinib] |  |  |  |  |  |  |  |  |  |  |  |  |  |  |  |  |  |  | 108% and 107% |  |  | 106% and 100% | 103% and 113%
9 | CCN(CC)CCNC(=O)c1c(C)[nH]c(/C=C2\C(=O)Nc3ccc(F)cc32)c1C [Sunitinib] (100 nM) | 103% | 127% | 98.3% | 86% | 86.5% | 99.8% | 98.1% | 107% | 106% | 114% | 77% | 108% | 123% | 97.1% | 102% | 102% | 101% |  |  |  | 76.8% |  | 
10 | CC[C@@]1(O)C(=O)OCc2c1cc1n(c2=O)Cc2cc3c(CN(C)C)c(O)ccc3nc2-1 [Topotecan] (100 nM) | 103% | 92.8% | 98.9% | 37.6% | 65% | 100% | 94.9% | 74.7% | 90.7% | 52.5% | 98.7% | 106% | 108% | 76.5% | 108% | 91.8% | 98% |  |  |  | 103% |  | 
11 | CC[C@@]1(O)C(=O)OCc2c1cc1n(c2=O)Cc2cc3c(CN(C)C)c(O)ccc3nc2-1 [Topotecan] (1000 nM) | 96.6% | 90.6% | 85% | 12% | 18.9% | 67.8% | 83.2% | 76.7% | 81.3% | 95.1% |  | 92.2% |  | 71% | 108% | -478% | 90.7% |  |  |  |  |  | 
